# In patent US8680145B1, “Compositions and methods for treatment of fear of medical procedures” (priority 2013, dated 2014):
# Assays:
# [1] = tested on: subject with dental phobia; assay: Routine dental checkup (cleaning and examination) of a subject with dental phobia after proglumide (Example 1); assay type: in vivo, human
# Excerpt: Proglumide was obtained from commercial suppliers and/or pharmacies, and loaded into capsules. A subject with dental phobia, who had not been to a dentist in many years, agreed to undergo a routine dental checkup visit (cleaning and examination), and to take proglumide prior to the dental visit. […] Furthermore, the subject was willing to return for a follow-up visit within one week in order to replace an aged filling, a procedure that was not deemed urgent and easily could have been delayed.
# [2] = cited from earlier work
# [3] = chronic administration (Kellstein 1990); cited from earlier work
# [4] = tested on: subject with dental phobia; assay: Replacement of an aged metal filling in the same subject after proglumide (Example 2); assay type: in vivo, human; settings: capsule 200 mg proglumide 90 minutes prior; local anesthetic given by dentist
# Procedure: Proglumide was obtained from commercial suppliers and/or pharmacies, and loaded into capsules. The same subject as in Example 1 returned to the dentist five days after the dental checkup of Example 1 in order to replace an aged metal filling. Again, proglumide was administered to the subject in advance of the appointment. […] The dentist administered a local anesthetic (e.g., lidocaine) painkiller as part of the procedure for replacing the filling. The residual discomfort following the procedure, including after the numbness wore off, was mild.
# rats = settings: opiate-naïve and morphine-tolerant rats (Watkins 1985); cited from earlier work
# human patients = settings: cited from earlier work
structure (smiles),measurement,setting,value
"CCCN(CCC)C(=O)C(CCC(=O)O)NC(=O)c1ccccc1 (stereo not shown) [proglumide, Proglumide]",Total discomfort,[1]; capsule 100 mg proglumide ninety minutes prior to dental appointment,low enough that the subject would be willing to return to a regular dental checkup schedule
same,Subject-reported pain during calculus removal,"[1]; capsule 100 mg proglumide ninety minutes prior to dental appointment, relative to previous dental visits without proglumide",substantially reduced
same,"Post-checkup pain (tender gums, sensitivity while chewing)","[1]; capsule 100 mg proglumide ninety minutes prior, relative to after previous dental checkups",significantly reduced
same,Placebo analgesia,[2]; Benedetti 1995,enhance
same,Nocebo hyperalgesia,[2]; Benedetti 2006,block
same,Efficacy as a long-term adjunct to opiate treatment for chronic pain,[3],ineffective
same,"Residual discomfort following the procedure, including after the numbness wore off",[4],mild
same,Morphine analgesia,rats,potentiates
same,"Augmentation of morphine analgesia, treatment vs control groups",human patients; cancer pain management (Bernstein 1998) and post-operative patients (Lehmann 1989),no difference
same,Analgesic efficacy of morphine,human patients; human patients with chronic pain (McCleane 1998),enhances
